Usually IC50 stands for the concentration needed to halve the response being measured. Higher therefore signals lower potency.

Molecules are shown by their SMILES. Where “and” joins values, the source holds several entries; their conditions need not be identical. Identical values can stand only once.

The target in test [1] is Beta-lactamase (Escherichia coli K-12, UniProt P00811). In words: (§1) Assays are performed with beta -lactamases expressed in the pET system (Novagen, San Diego, Calif.) without signal peptides. They contain an N-terminal hexa-Histidine tag that is used for purification on Ni-NTA (Qiagen, Hilden, Germany). The compounds are prepared as 50 mM stocks in DMSO and diluted into buffer P1 (50 mM phosphate, pH 7) to a final concentration of 10% DMSO. All further dilutions are done in P2 (P1 with 10% DMSO). Enzyme and compound dilutions are pre-incubated for 10 min at 37 C. and the reaction is started with the addition of pre-warmed (37 C.) nitrocefin at a final concentration of […]. The change in absorption at 490 nm is followed at 37 C. for 10 min with 30 s intervals.
Sequence of Beta-lactamase (P00811 whole entry): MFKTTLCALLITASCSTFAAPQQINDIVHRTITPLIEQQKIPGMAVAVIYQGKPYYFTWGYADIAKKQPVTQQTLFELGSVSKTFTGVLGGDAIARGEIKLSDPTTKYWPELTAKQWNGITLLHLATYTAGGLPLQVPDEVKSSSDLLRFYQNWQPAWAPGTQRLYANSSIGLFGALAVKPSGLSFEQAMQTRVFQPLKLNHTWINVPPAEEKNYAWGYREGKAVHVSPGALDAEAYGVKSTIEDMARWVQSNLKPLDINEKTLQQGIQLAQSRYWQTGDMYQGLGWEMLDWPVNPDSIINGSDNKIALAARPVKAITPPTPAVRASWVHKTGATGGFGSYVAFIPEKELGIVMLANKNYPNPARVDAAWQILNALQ

In test [2] the target is Beta-lactamase TEM (Bacteria, UniProt P62593). Described as §1.
Sequence of Beta-lactamase TEM (P62593 whole entry): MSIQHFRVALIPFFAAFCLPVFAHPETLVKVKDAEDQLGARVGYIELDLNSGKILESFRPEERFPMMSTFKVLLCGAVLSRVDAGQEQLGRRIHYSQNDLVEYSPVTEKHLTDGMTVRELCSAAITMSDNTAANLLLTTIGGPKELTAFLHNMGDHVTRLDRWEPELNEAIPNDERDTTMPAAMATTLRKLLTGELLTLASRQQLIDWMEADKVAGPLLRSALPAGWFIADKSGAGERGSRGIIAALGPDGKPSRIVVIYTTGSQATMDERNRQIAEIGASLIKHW

As for `[N-]=[N+]=NCC1C/C(=C2\O[C@@H]3CC(=O)N3C2C(=O)OCc2ccccc2)C(=O)O1` (stereo not given in full), inhibition in test [1] was half-maximal at 0.305 µM (IC50).
With `COC(=O)C1/C(=C2/CC(CI)OC2=O)O[C@@H]2CC(=O)N12` (stereo not given in full), the IC50 in test [2] came to 0.0035 µM; in test [1] it was 0.126 µM.
As to `CC1CC(=C2O[C@@H]3CC(=O)N3C2C(=O)O)C(=O)O1` (single isomer, unassigned), the IC50 in test [1] was 6.08 µM.
For the compound `CC1C/C(=C2\O[C@@H]3CC(=O)N3C2C(=O)OCc2ccccc2)C(=O)O1` (single isomer, unassigned), the concentration for half-maximal inhibition (IC50) in test [1] was 1.07 µM and 0.301 µM.

For the origin of these results see ChEMBL document CHEMBL3886147 (2015).
